Reference: patent publication US10294202B2, “Pyrrolidinones as herbicides” (FMC Corporation, priority 2013, dated 2019)
Read-outs that look alike come from different tables or passages of the source.

Columns and labels:
crabgrass, large = assay: Test A pre-/postemergence herbicide test; assay type: in vivo, Digitaria sanguinalis; conditions: for pest or weed control at 125 g/ha / pest or weed control at 500 g/ha: Digitaria sanguinalis, 240 h, read-out: Plant response rating, Crabgrass, Large; for pest or weed control at 125 g/ha / Crabgrass, Large plant response rating: 125 g ai/ha; for pest or weed control at 125 g/ha: 0 no effect, 100 complete control; for pest or weed control at 500 g/ha: 500 g ai/ha; for Crabgrass, Large plant response rating: Preemergence, visual rating on 0 to 100 scale (0 no effect, 100 complete control)
Procedure, shortened: (§1)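 Seeds sown in loam soil/sand blend received a preemergence directed soil spray of test chemical in non-phytotoxic solvent with surfactant; postemergence plants (2–10 cm, one- to two-leaf stage) were sprayed with the same formulation. After about 10 days in greenhouse, injury was rated visually versus untreated controls, 0 (no effect) to 100 (complete control).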

morningglory = assay: Test A pre-/postemergence herbicide test; assay type: in vivo, Ipomoea spp.; conditions: for pest or weed control at 500 g/ha / pest or weed control at 125 g/ha: Ipomoea, 240 h, read-out: Plant response rating, Morningglory; for pest or weed control at 500 g/ha: 500 g ai/ha; for Morningglory plant response rating: Preemergence, visual rating on 0 to 100 scale (0 no effect, 100 complete control); for Morningglory plant response rating / pest or weed control at 125 g/ha: 125 g ai/ha; for pest or weed control at 125 g/ha: 0 no effect, 100 complete control
Procedure, shortened: as §1

velvetleaf = assay: Test A pre-/postemergence herbicide test; assay type: in vivo, Abutilon theophrasti; conditions: for pest or weed control at 500 g/ha / pest or weed control at 125 g/ha: Abutilon theophrasti, 240 h, read-out: Plant response rating, Velvetleaf; for pest or weed control at 500 g/ha: 500 g ai/ha; for Velvetleaf plant response rating: Preemergence, visual rating on 0 to 100 scale (0 no effect, 100 complete control); for Velvetleaf plant response rating / pest or weed control at 125 g/ha: 125 g ai/ha; for pest or weed control at 125 g/ha: 0 no effect, 100 complete control
Procedure, shortened: as §1

rice = assay: Test C flooded paddy test; assay type: in vivo, Oryza sativa; conditions: Flood
Procedure, shortened: (§2)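 Visual ratings from 0, no effect, to 100, complete control, were made against untreated controls after 13–15 greenhouse days. Compounds had gone straight into paddy water 3 cm above the soil, kept at that depth, on 2-leaf-stage plants.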

sedge, umbrella = assay: Test C flooded paddy test; assay type: in vivo, Cyperus difformis; conditions: Flood
Procedure, shortened: as §2

barnyardgrass = assay: Test C flooded paddy test; assay type: in vivo, Echinochloa crus-galli; conditions: Flood
Procedure, shortened: as §2

[1] = post-emergence, Postemergence, 0 to 100 scale
[2] = post-emergence, Postemergence, 0 to 100 scale (0 no effect, 100 complete control)
[3] = pre-emergence, preemergence, 0 to 100 scale
[4] = 62 g ai/ha, scale of 0 to 100 where 0 is no effect and 100 is complete control, 13 to 15 days
[5] = 125 g ai/ha, scale of 0 to 100 where 0 is no effect and 100 is complete control, 13 to 15 days
[6] = 31 g ai/ha, scale of 0 to 100 where 0 is no effect and 100 is complete control, 13 to 15 days

Row | Compound | pest or weed control at 125 g/ha (crabgrass, large; [1]) | pest or weed control at 500 g/ha (crabgrass, large; [2]) | pest or weed control at 500 g/ha (crabgrass, large; [3]) | Crabgrass, Large plant response rating (crabgrass, large) | pest or weed control at 500 g/ha (morningglory; [2]) | pest or weed control at 500 g/ha (morningglory; [3]) | Morningglory plant response rating (morningglory) | pest or weed control at 500 g/ha (velvetleaf; [2]) | pest or weed control at 500 g/ha (velvetleaf; [3]) | Velvetleaf plant response rating (velvetleaf) | Plant response rating, Rice (rice; [4]) | Plant response rating, Rice (rice; [5]) | Plant response rating, Rice (rice; 250 g ai/ha, scale 0 to 100) | Plant response rating, Sedge, Umbrella (sedge, umbrella; [4]) | Plant response rating, Sedge, Umbrella (sedge, umbrella; [5]) | Plant response rating, Sedge, Umbrella (sedge, umbrella; 250 g ai/ha, scale 0 to 100) | Plant response rating, Barnyardgrass (barnyardgrass; [4]) | Plant response rating, Barnyardgrass (barnyardgrass; [5]) | Plant response rating, Barnyardgrass (barnyardgrass; 250 g ai/ha, scale 0 to 100) | pest or weed control at 125 g/ha (morningglory; [1]) | further results
1 | O=C1NCCC1C(=O)N(c1ccc(F)c(F)c1)c1ccccc1F (stereo not shown) [Compound 5, N-(3,4-difluorophenyl)-N-(2-fluorophenyl)-2-oxo-3-pyrrolidinecarboxamide] | 70% | 80% | 90% | 80 | 10% | 0% | 0 | 0% | 0% | 0 | 0 | 0 | 0 | 0 | 0 | 0 | 0 | 20 | 55 | – | –
2 | O=C1NCC(Br)(c2ccccc2)C1C(=O)Nc1ccccc1F (stereo not shown) [Compound 92, 4-bromo-N-(2-fluorophenyl)-2-oxo-4-phenyl-3-pyrrolidinecarboxamide] | 20% | 70% | 90% | 80 | 0% | 0% | 0 | 0% | 0% | 0 | 10 | 20 | 20 | 0 | 0 | 0 | 10 | 10 | 10 | 0% | pest or weed control at 125 g/ha (velvetleaf; [1]): 0%; Plant response rating, Rice (rice; [6]): 10; Plant response rating, Sedge, Umbrella (sedge, umbrella; [6]): 0; Plant response rating, Barnyardgrass (barnyardgrass; [6]): 10
3 | O=C1NCC(c2ccccc2)C1(Br)C(=O)Nc1ccccc1F (stereo not shown) [Compound 93, 3-bromo-N-(2-fluorophenyl)-2-oxo-4-phenyl-3-pyrrolidinecarboxamide] | 50% | 80% | 90% | 90 | 0% | 0% | 0 | 0% | 0% | 0 | 20 | 20 | 30 | 0 | 0 | 100 | 0 | 0 | 40 | 0% | pest or weed control at 125 g/ha (velvetleaf; [1]): 0%; Plant response rating, Rice (rice; [6]): 10; Plant response rating, Sedge, Umbrella (sedge, umbrella; [6]): 0; Plant response rating, Barnyardgrass (barnyardgrass; [6]): 0
